According to patent US20250354223A1, “METHODS AND KITS FOR D[…] SUSCEPTIBILITY” (Siemens Healthcare Diagnostics Inc., priority 2022, published 2025):

Experiments:
Assay type in all cases: cell-based
E. coli [1] = assay: RT-PCR of extracted RNA with 16SrDNA specific primers, with vs without antibiotic; details: ampicillin-susceptible E. coli, 1×10^6 cells/mL, ampicillin 100 μg/mL, 37° C., 60 minutes; FIG. 10 table 1
Description: (§1) Overnight E. coli culture that was susceptible to ampicillin was further sub-cultured for 2-3 hours to log phase. Cells in this culture were quantified using OD600nm values. The culture was diluted to 1×10^6 cells/mL and 10 mL was aliquoted into two, 50 ml conical flask. Ampicillin at 100 μg/mL was added to one of the conical flasks. The two flasks, with and without antibiotic were incubated at 37° C. and two, 50 μL aliquots were taken from each flask at regular intervals (0, 30, 40 and 60 mins). Nucleic acid (NA) was extracted from all sample aliquots using the VERSANT® brand Sample preparation 1.0 reagent kit. The NA samples were then subjected to PCR and RT-PCR (reverse transcription-PCR) using 16SrDNA specific primers (each DNA extracted sample was split into two replicates for PCR). […] In this experiment, all RNA samples were treated with DNAse for 60 min at 37° C. before RT-PCR. In a subsequent experiment it was shown that a treatment as low as 5 minutes was also sufficient to eliminate DNA from the sample.

E. coli [2] = assay: PCR of extracted DNA with 16SrDNA specific primers, with vs without antibiotic (no EMA); details: ampicillin-susceptible E. coli, 1×10^6 cells/mL, ampicillin 100 μg/mL, 37° C.
Description: as §1
Overnight E. coli culture that was susceptible to ampicillin was further sub-cultured for 2-3 hours to log phase. Cells in this culture was quantified using OD600nm values. The culture was diluted to 1×10^6 cells/mL and 10 mL was aliquoted into two, 50 ml conical flasks. Ampicillin at 100 μg/mL was added to one of the conical flasks. […]

E. coli [3] = assay: EMA (ethidium monoazide) + blue light treatment followed by PCR with 16SrDNA specific primers, with vs without antibiotic
Description: FIG. 3 illustrates a method of determining antibiotic susceptibility of micro-organisms, according to yet another embodiment. At step 301, the sample comprising the micro-organism is received. At step 302, at least one first portion of the sample is incubated with an antibiotic and at least one second portion of the sample is incubated with no antibiotic. The micro-organisms in the sample are required to be grown/cultured or incubated for the shortest possible time in which discernible nucleic acid differences can be measured. For example, the micro-organisms are cultured or incubated for a range of at least one to five doubling cycles. Antibiotics which are cell wall synthesis inhibitors (beta lactam) and cell membrane inhibitors (colistin) affect the integrity of cell wall of the micro-organisms. This facilitates determination of antibiotic susceptibility. Once the doubling cycle range is met for the at least one first and second portion of the sample, at step 303, an intercalating dye is introduced to the at least one first portion of the sample and the at least one second portion of the sample. […]
Overnight E. coli culture that was susceptible to ampicillin was further sub-cultured for 2-3 hours to log phase. Cells in this culture was quantified using OD600nm values. […]

CC1(C)S[C@@H]2[C@H](NC(=O)[C@H](N)c3ccccc3)C(=O)N2[C@H]1C(=O)O [ampicillin]
detection of ampicillin susceptibility by RNA levels (E. coli [1]): able to detect for ampicillin susceptibility at 60 minutes
distinction of antibiotic and no antibiotic samples by DNA levels (E. coli [2]; 60 min incubation, FIG. 10 table 2): did not distinguish antibiotic and no antibiotic samples
difference in Ct between ampicillin exposed and unexposed, samples not exposed to EMA+blue light (E. coli [2]; up to 30 mins, no EMA, FIG. 14 table 2): did not show any difference
effect of including EMA on the difference in cycle threshold values between first (ampicillin) and second (no ampicillin) portion (E. coli [3]; FIG. 4, graph 402 (ampicillin and EMA) vs graph 401 (ampicillin only)): improves the difference in the cycle threshold values
difference in Ct between ampicillin exposed and unexposed, samples exposed to EMA (E. coli [3]; ampicillin-susceptible E. coli, 1×10^6 cells/mL, ampicillin 100 μg/mL, 37° C., within 30 minutes, EMA + blue LED light, FIG. 14 table 1): large difference in Ct
